Assay results taken from patent US20230173018A1, “CASPOFUNGIN DERIVATIVES AND ASSAYS FOR EVALUATING ANTIFUNGAL TREATMENT EFFICACY” (priority 2020, published 2023).
In brackets after ≈: the same amount, converted by molar mass. Where two headings read alike, the source gives them in different places.

Experiments:
Assay type in all cases: cell-based
C. glabrata TGL00065 = assay: microbe, parasite or virus in culture; conditions: strain no. 27, TGL00065, FKS mutant
From the text: (§1) The antifungal activities of compounds 1a, 1 and 2 (collectively: caspofungin derivatives) were compared to that of caspofungin and CSF-BOD using a panel of 49 C. albicans and C. glabrata strains (Tables 1 and 2). The panel included ATCC strains and clinical isolates as well a collection of caspofungin-responsive strains and their corresponding isogenic caspofungin-resistant derivatives, constructed by introducing point mutations within and near the defined hotspots in the FKS1 and/or FKS2 genes of the GS complex. Minimal inhibitory concentration (MIC) values for all strains were determined using the broth double dilution method and are summarized in FIG. 2 and Table 2. […] The clinical breakpoints (threshold) for caspofungin-resistance in C. albicans and C. glabrata are 1 μg/mL and 0.5 μg/mL, respectively.

C. glabrata DPL1086 = assay: microbe, parasite or virus in culture; conditions: strain no. 17, DPL1086, parental ATCC 90030, FKS1 mutant HS1-S629P
From the text: as §1

C. glabrata TGL00054 = assay: microbe, parasite or virus in culture; conditions: strain no. 19, TGL00054, parental CST109, FKS2 mutant
From the text: as §1

C. glabrata TGL00265 = assay: microbe, parasite or virus in culture; conditions: strain no. 30, TGL00265, parental CST78, FKS mutant
From the text: as §1

[1] = tested on: C. albicans T-2069 (DP-85); assay: microbe, parasite or virus in culture; conditions: strain no. 14, T-2069 (DP-85), clinical isolate, FKS1 HS1-S645F mutation
From the text: as §1

[2] = tested on: C. glabrata T-985 (11-076); assay: microbe, parasite or virus in culture
From the text: as §1

[3] = tested on: C. albicans T-2074 (DP-122); assay: microbe, parasite or virus in culture; conditions: strain no. 12, T-2074 (DP-122), clinical isolate, FKS1 HS1-P649H mutation
From the text: as §1

C. glabrata TGL00291 = assay: microbe, parasite or virus in culture; conditions: strain no. 36, TGL00291, parental BG2, FKS mutant
From the text: as §1

[4] = tested on: C. albicans T-2076 (DP-194); assay: microbe, parasite or virus in culture; conditions: strain no. 13, T-2076 (DP-194), clinical isolate, FKS1 HS1-S645F, HS2-R1361R/H mutation
From the text: as §1

[5] = tested on: C. albicans T-2077 (DP-205); assay: microbe, parasite or virus in culture; conditions: strain no. 15, T-2077 (DP-205), clinical isolate, FKS1 HS1-S645P mutation
From the text: as §1

[6] = tested on: C. albicans DPL1016 (DP-A15-10); assay: microbe, parasite or virus in culture; conditions: strain no. 3, DPL1016 (DP-A15-10), parental SC5314, FKS1 mutant HS1-S645P
From the text: as §1

C. glabrata TGL00056 = assay: microbe, parasite or virus in culture; conditions: strain no. 22, TGL00056, parental CST34, FKS mutant
From the text: as §1

C. glabrata CST78 = assay: microbe, parasite or virus in culture
From the text: as §1

C. albicans CAF2-1 = assay: microbe, parasite or virus in culture; conditions: strain no. 10, CAF2-1, parental SC5314
From the text: as §1

C. glabrata TGL00107 = assay: microbe, parasite or virus in culture; conditions: strain no. 23, TGL00107, parental CST34, FKS mutant
From the text: as §1

C. albicans CG72 = assay: microbe, parasite or virus in culture
From the text: as §1

[7] = tested on: panel of 49 C. albicans and C. glabrata strains; assay: Antifungal activity (MIC) compared to caspofungin over the panel; conditions: for antifungal activity spectrum: resistant vs responsive strains of the panel; for antifungal activity based on MIC values: panel of 49 strains; for MIC values higher than the parent caspofungin: ratio to caspofungin MIC, FIG. 2, Table 2
From the text: as §1, with “Minimal inhibitory concentration (MIC) values for all strains were determined using the broth double dilution method and are summarized in FIG. 2 and Table 2.” left out, “respectively. […]” for “respectively.”

[8] = strain no. 49, T-985 (11-076), clinical isolate
[9] = strain no. 26, C. glabrata CST78
[10] = strain no. 7, CG72, parental CAM, pKE1:GFP-YPT72

SMILES | MIC (C. glabrata TGL00065) | MIC (C. glabrata DPL1086) | MIC (C. glabrata TGL00054) | MIC (C. glabrata TGL00265) | MIC [1] | MIC [3] | MIC (C. glabrata TGL00291) | MIC [4] | MIC [5] | MIC [6] | MIC (C. glabrata TGL00056) | MIC (C. albicans CAF2-1) | MIC (C. glabrata TGL00107) | MIC [2, 8] | MIC (C. glabrata CST78; [9]) | MIC (C. albicans CG72; [10]) | antifungal activity spectrum [7] | antifungal activity based on MIC values [7] | MIC values higher than the parent caspofungin [7] | also measured
CN(C)c1ccc2c(-c3ccc(C(=O)NCCCN=[N+]=[N-])cc3C(=O)[O-])c3ccc(=[N+](C)C)cc-3oc2c1 [Compound 5-TMR-azide] | >64 µg/mL | >64 µg/mL | >64 µg/mL | >64 µg/mL | >64 µg/mL | >64 µg/mL | >64 µg/mL | >64 µg/mL | >64 µg/mL | >64 µg/mL | >64 µg/mL | >64 µg/mL | >64 µg/mL | – | – | – | – | – | – | MIC [2]: >64 µg/mL; MIC (C. glabrata CST78): >64 µg/mL; MIC (C. albicans CG72): >64 µg/mL
CC[C@H](C)C[C@H](C)CCCCCCCCC(=O)N[C@H]1C[C@@H](O)[C@@H](NCCNC(=O)CCc2ccc3n2[B-](F)(F)[N+]2=C(C)C=C(C)C2=C3)NC(=O)[C@@H]2[C@@H](O)CCN2C(=O)[C@H]([C@H](O)CCN)NC(=O)[C@H]([C@H](O)[C@@H](O)c2ccc(O)cc2)NC(=O)[C@@H]2C[C@@H](O)CN2C(=O)[C@H]([C@@H](C)O)NC1=O [CSF-BOD] | >64 µg/mL | 16 µg/mL (≈ 11.7 µM) | >64 µg/mL | >64 µg/mL | >64 µg/mL | 16 µg/mL (≈ 11.7 µM) | >64 µg/mL | 32 µg/mL (≈ 23.4 µM) | >64 µg/mL | >64 µg/mL | >64 µg/mL | 2 µg/mL (≈ 1.46 µM) | >64 µg/mL | 2 µg/mL (≈ 1.46 µM) | 2 µg/mL (≈ 1.46 µM) | 1 µg/mL (≈ 0.731 µM) | identical to that of caspofungin | – | – | MIC values higher than those of caspofungin ([7]; against the responsive strains from the tested panel): 8-32 fold
CC[C@H](C)C[C@H](C)CCCCCCCCC(=O)N[C@H]1C[C@@H](O)[C@@H](NCCN)NC(=O)[C@@H]2[C@@H](O)CCN2C(=O)[C@H]([C@H](O)CCN)NC(=O)[C@H]([C@H](O)[C@@H](O)c2ccc(OCc3cn(CCCNc4ccc([N+](=O)[O-])c5nonc45)nn3)cc2)NC(=O)[C@@H]2C[C@@H](O)CN2C(=O)[C@H]([C@@H](C)O)NC1=O [Compound 2] | >64 µg/mL | 32 µg/mL (≈ 22.9 µM) | >64 µg/mL | >64 µg/mL | >64 µg/mL | 64 µg/mL (≈ 45.9 µM) | >64 µg/mL | >64 µg/mL | >64 µg/mL | >64 µg/mL | >64 µg/mL | 1 µg/mL (≈ 0.717 µM) | >64 µg/mL | 4 µg/mL (≈ 2.87 µM) | 4 µg/mL (≈ 2.87 µM) | 1 µg/mL (≈ 0.717 µM) | identical to that of caspofungin | retained antifungal activities | 16-16 | –
C#CCOc1ccc([C@H](O)[C@@H](O)[C@@H]2NC(=O)[C@@H]3C[C@@H](O)CN3C(=O)[C@H]([C@@H](C)O)NC(=O)[C@@H](NC(=O)CCCCCCCC[C@@H](C)C[C@@H](C)CC)C[C@@H](O)[C@@H](NCCN)NC(=O)[C@@H]3[C@@H](O)CCN3C(=O)[C@H]([C@H](O)CCN)NC2=O)cc1 [Compound 1a] | >64 µg/mL | 4 µg/mL (≈ 3.54 µM) | >64 µg/mL | >64 µg/mL | 32 µg/mL (≈ 28.3 µM) | 16 µg/mL (≈ 14.1 µM) | >64 µg/mL | 32 µg/mL (≈ 28.3 µM) | >64 µg/mL | 16 µg/mL (≈ 14.1 µM) | >64 µg/mL | – | >64 µg/mL | 0.5 µg/mL (≈ 0.442 µM) | 0.5 µg/mL (≈ 0.442 µM) | 0.063 µg/mL (≈ 0.0557 µM) | – | retained antifungal activities | 1-8 | –
